One assay concerns the target Abl (M351T)(h) (Homo sapiens, UniProt P00519, M351T). Kind of assay: KinaseProfiler kinase assay. The assay is classed as biochemical.
The next assay deals with Ret (V804L)(h) (Homo sapiens, UniProt P07949, V804L). Kind of assay: KinaseProfiler kinase assay. It is filed as biochemical. An outline of the steps:
(§1)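 Kinase activity is followed by incorporation of 33P from [γ-33P]ATP in 8 mM MOPS pH 7.0 with 10 mM Mg acetate and 0.2 mM EDTA over 40 min at room temperature. Inhibition is scaled between no-kinase and phosphopeptide control wells.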

The next assay addresses Ret(V804M)(h) (Homo sapiens, UniProt P07949, V804M). Kind of assay: KinaseProfiler kinase assay. The assay is classed as biochemical. An outline of the steps: as §1
The target of another assay is FGFR2(h) (Homo sapiens, UniProt P21802). Kind of assay: KinaseProfiler kinase assay. It is filed as biochemical.
A further assay addresses FGFR3(h) (Homo sapiens, UniProt P22607). Kind of assay: KinaseProfiler kinase assay. It is filed as biochemical.
The target of the next assay is Flt1(h) (Homo sapiens, UniProt P17948). Kind of assay: KinaseProfiler kinase assay. It is filed as biochemical.
The target of a further assay is Flt4(h) (Homo sapiens, UniProt P35916). Kind of assay: KinaseProfiler kinase assay. It is filed as biochemical.
A further assay deals with AN3.CA. Kind of assay: CellTiterBlue cell growth inhibition. The assay is classed as cell-based. The note with it: Homo sapiens, 72 hours. The procedure: (§2) This example illustrated the proliferating cell growth inhibition of selected compounds from this invention. To do this, the cells were seeded into fresh Iscove's growth medium at a density of 0.4e6 cells/ml and grown in log phase for 24 hr. Cells were then resuspended in their fresh respective growth media at 0.1e^6 cells/ml and plated into 384 well black, clear-bottom microplates at 36 ul/well. Test compounds and controls were initially dissolved in DMSO at the desired concentration, then serially diluted to the assay buffer. These solutions were added and cells were incubated for 72 hours at 37° C. CellTiterBlue (Promega cat# G7572) was added on the Beckman FX. Plates were returned to the 37° C. CO2 incubator for 4 hr and then fluorescence was determined on the Victor plate reader. Data were processed using Microsoft Excel, and GI50 values were generated using Prism (GraphPad Software, San Diego, Calif.).

In a further assay the test system is KU812. Kind of assay: CellTiterBlue cell growth inhibition. The assay is classed as cell-based. The conditions noted are these: Homo sapiens; KU812, 72 hours. As to the method:
as §2

The test system of the next assay is Kato III. Kind of assay: CellTiterBlue cell growth inhibition. It is filed as cell-based. The conditions noted are these: Homo sapiens, 72 hours. The procedure: as §2
Another assay relates to RS4.11. Kind of assay: CellTiterBlue cell growth inhibition. The conditions noted are these: Homo sapiens; RS4.11, 72 hours. The assay is classed as cell-based. As to the method: as §2
The next assay has as its system TT. Kind of assay: CellTiterBlue cell growth inhibition. The conditions noted are these: Homo sapiens, 72 hours. It is filed as cell-based. As to the method: as §2
The subject of assay [1] is human MIAPaCa-2 pancreatic carcinoma xenograft. Kind of assay: Pancreatic carcinoma xenograft in athymic nude mice. The note with it: MIAPaCa-2 xenograft; for anti-tumor effect: nude mice, single agent. It is filed as in vivo, mouse. As to the method: The objective of the third study was to evaluate antitumor activities of novel multiple-kinase inhibitor NTW-3475 in human MIAPaCa-2 pancreatic carcinoma xenograft in athymic nude-Faxn1 mice.
Four animals were randomly assigned to study groups. Each animal was weighed, and then injected subcutaneously in the left and right flank area with 0.1 ml of 5.0×10^7 MIAPaCa-2 cells per mL.
Each test or control animal was on a 5-day on, two-day off for two cycles treatment schedule with negative control vehicle, positive control Abraxane at 20 mg/kg or 25, 50 mg/kg of NTW-3475. Tumor growth was measured with a digital hand held caliper twice weekly (once tumor emerges) prior to the first dosing and then two to three times weekly until euthanized.
The objective of the third study was to evaluate antitumor activities of novel multiple-kinase inhibitor Compound 10, 11, 12, 53, 68, 82, 83, 88, and 90 in human MIAPaCa-2 pancreatic carcinoma xenograft in athymic nude-Faxn1 mice.
Each test or control animal was on a 5-day on, two-day off for three cycles treatment schedule with negative control vehicle or 40 mg/kg of Compound 10, 11, 12, 53, 68, 82, 83, 88 and 90. Tumor growth was measured with a digital hand held caliper twice weekly (once tumor emerges) prior to the first dosing and then two to three times weekly until euthanized.

For assay [2], the system named is TT human Thyroid carcinoma xenograft. Kind of assay: Thyroid carcinoma xenograft. The assay is classed as in vivo, mouse. The procedure:
This example assesses Compound 10, 53 and 88's anti-tumor activity using a SCID mouse xenograft models for TT human Thyroid carcinoma xenograft (FIGS. 65 to 69.)
On the appropriate days, each animal in an appropriate group will receive a specific amount of Compound 10 either at 50 or 100 mg/kg, and the dosing volume is 10 ml/kg by oral gavage as indicated. Dosing schedule will be once daily for 30 days.
On the appropriate days, each animal in an appropriate group will receive a specific amount of Compound 53 either at 50 or 100 mg/kg, and the dosing volume is 10 ml/kg by oral gavage as indicated. Dosing schedule will be once daily for 30 days.
Dosing schedule will be once daily for 30 days.

The text below walks through data of patent US10245261B2, “Substituted indol-5-ol derivatives and their therapeutic applications” (NantBioScience, Inc., priority 2013, dated 2019).

Sequence of Flt4(h) (P35916 25-1363): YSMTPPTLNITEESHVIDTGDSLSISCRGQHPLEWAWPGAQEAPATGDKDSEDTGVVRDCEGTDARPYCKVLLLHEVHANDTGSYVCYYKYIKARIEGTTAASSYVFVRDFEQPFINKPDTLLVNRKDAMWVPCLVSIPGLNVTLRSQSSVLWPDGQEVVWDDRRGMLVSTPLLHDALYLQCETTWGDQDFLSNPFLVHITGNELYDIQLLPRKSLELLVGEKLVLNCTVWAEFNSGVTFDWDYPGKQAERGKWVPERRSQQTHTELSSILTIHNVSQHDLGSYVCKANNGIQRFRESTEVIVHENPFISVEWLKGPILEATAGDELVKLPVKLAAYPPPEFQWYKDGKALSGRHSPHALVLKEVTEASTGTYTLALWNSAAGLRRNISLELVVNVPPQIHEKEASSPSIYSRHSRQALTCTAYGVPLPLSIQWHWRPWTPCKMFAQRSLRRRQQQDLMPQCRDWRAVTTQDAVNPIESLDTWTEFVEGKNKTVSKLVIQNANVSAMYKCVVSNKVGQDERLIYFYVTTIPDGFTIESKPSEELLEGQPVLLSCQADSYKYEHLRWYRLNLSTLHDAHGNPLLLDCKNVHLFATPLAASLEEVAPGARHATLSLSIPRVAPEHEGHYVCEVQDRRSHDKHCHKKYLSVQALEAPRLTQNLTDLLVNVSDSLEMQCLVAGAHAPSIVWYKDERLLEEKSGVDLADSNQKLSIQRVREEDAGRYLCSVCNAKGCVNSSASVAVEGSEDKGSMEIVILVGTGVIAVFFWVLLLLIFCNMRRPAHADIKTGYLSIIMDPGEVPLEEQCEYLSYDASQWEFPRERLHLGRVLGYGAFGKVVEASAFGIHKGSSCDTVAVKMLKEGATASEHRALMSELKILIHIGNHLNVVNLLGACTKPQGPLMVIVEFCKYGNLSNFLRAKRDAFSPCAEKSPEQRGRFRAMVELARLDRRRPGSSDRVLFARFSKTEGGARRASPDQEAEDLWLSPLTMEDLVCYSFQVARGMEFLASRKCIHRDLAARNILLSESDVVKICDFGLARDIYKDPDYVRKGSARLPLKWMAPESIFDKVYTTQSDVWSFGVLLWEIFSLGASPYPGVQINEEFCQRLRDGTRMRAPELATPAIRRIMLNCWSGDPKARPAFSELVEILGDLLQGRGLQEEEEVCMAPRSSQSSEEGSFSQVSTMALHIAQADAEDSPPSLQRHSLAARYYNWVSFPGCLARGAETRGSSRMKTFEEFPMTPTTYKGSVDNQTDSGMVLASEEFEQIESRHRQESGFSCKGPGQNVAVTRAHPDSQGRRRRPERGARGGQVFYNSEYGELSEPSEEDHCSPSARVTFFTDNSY
Sequence of Flt1(h) (P17948 27-1338): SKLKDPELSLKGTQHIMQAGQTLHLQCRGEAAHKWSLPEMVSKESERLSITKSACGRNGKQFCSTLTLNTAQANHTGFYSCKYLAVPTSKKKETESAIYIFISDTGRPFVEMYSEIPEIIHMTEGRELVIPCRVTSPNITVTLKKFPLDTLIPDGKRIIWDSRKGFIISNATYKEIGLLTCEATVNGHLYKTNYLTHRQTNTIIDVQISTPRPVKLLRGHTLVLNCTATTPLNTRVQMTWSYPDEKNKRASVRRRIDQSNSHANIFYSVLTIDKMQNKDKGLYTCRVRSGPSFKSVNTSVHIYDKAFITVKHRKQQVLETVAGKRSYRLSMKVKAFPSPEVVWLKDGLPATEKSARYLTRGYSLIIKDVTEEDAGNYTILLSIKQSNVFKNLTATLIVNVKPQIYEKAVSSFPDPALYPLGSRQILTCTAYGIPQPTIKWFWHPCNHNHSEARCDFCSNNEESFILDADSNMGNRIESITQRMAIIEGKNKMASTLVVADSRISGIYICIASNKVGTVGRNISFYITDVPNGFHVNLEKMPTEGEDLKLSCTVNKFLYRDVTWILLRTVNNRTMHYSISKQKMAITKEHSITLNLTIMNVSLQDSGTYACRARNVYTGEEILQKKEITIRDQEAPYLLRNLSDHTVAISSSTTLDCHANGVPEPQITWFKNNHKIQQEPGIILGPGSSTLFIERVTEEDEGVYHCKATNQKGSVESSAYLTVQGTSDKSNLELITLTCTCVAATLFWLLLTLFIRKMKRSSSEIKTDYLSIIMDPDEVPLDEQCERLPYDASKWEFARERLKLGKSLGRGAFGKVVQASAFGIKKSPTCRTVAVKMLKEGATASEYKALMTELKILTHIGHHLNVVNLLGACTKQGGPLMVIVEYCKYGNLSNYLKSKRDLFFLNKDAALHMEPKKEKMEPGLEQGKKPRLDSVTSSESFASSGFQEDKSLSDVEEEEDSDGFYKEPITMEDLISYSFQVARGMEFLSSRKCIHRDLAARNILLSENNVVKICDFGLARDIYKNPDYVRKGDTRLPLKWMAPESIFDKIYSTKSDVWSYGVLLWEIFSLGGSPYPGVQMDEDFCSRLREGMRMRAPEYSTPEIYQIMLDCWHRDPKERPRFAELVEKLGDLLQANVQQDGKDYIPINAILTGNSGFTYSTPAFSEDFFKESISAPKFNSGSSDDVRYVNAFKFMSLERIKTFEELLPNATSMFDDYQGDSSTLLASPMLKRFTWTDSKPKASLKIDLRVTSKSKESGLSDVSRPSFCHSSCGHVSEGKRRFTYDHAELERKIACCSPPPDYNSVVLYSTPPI
Sequence of FGFR3(h) (P22607 23-806): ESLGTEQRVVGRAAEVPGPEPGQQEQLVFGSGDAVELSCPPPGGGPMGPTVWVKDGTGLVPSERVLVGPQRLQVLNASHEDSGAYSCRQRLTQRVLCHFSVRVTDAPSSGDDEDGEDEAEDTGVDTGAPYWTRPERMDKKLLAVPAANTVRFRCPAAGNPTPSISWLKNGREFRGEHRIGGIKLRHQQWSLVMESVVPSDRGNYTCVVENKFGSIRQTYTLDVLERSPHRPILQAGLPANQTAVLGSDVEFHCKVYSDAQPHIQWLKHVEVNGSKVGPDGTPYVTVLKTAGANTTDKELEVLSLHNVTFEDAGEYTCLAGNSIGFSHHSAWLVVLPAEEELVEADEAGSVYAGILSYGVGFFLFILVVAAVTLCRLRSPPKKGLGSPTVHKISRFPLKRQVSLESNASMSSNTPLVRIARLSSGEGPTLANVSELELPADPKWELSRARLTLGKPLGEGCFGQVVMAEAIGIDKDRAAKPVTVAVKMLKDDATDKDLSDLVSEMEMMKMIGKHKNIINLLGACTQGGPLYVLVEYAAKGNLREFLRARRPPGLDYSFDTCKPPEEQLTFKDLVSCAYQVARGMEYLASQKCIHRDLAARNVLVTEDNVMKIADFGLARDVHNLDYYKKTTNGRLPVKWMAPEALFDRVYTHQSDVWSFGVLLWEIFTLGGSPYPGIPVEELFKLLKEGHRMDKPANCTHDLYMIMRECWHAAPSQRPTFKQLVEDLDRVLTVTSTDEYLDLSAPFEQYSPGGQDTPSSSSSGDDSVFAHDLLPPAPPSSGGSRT
Sequence of FGFR2(h) (P21802 22-821): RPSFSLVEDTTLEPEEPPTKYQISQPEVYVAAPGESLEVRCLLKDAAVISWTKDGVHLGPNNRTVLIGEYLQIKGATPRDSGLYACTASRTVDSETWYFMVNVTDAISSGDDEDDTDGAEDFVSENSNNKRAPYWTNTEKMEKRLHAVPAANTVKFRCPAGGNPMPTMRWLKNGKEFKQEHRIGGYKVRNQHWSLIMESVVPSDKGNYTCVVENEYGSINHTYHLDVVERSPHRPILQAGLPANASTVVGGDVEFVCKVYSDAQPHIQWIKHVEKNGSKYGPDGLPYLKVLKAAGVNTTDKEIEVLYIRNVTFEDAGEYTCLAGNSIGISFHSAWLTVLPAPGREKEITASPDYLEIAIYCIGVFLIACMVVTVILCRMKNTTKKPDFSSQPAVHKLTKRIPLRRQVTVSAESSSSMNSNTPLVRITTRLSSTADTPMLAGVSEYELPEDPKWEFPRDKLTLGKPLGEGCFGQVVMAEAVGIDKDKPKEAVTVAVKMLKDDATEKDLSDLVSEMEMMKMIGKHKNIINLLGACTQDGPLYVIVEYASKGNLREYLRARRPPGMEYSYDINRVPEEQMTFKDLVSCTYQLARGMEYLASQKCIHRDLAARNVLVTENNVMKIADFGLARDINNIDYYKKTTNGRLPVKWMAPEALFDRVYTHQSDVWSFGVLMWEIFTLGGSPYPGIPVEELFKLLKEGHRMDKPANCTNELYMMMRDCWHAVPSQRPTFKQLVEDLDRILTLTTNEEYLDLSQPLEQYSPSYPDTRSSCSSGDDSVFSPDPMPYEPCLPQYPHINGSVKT

In the case of `Cc1cc2c(F)c(Oc3nc(Nc4cc(C5CC5)[nH]n4)cc(N4CCN(C)CC4)n3)ccc2[nH]1` [Compound 10], the inhibition at 0.1 µM was 99% against Abl (M351T)(h); 103% against Ret (V804L)(h); 96% against Ret(V804M)(h); 99% at FGFR2(h); 100% against FGFR3(h); 100% against Flt1(h). For the same molecule, the inhibition at 0.1 µM against Flt4(h) turned out to be 100%. The GI50 was 3 nM with AN3.CA; less than 0.025 nM in the assay with KU812; 0.07 nM with Kato III; 3.22 nM in the assay with RS4.11; 8.3 nM in the assay on TT. For the same molecule, the anti-tumor effect entry was “strong anti-tumor effect” in [1] and “anti-tumor effect” in [2].
For the molecule `Cc1cc2c(F)c(Oc3nc(Nc4cc(C5CC5)[nH]n4)cc(N4CCNCC4)n3)ccc2[nH]1` [Compound 11, N-(5-cyclopropyl-1H-pyrazol-3-yl)-2-((4-fluoro-2-methyl-1H-indol-5-yl)oxy)-6-(piperazin-1-yl)pyrimidin-4-amine], the inhibition at 0.1 µM at Abl (M351T)(h) came out at 102%; at Ret (V804L)(h) it was 102%; against Ret(V804M)(h), 101%; on FGFR2(h), 99%; against FGFR3(h), 101%; at Flt1(h) it was 100%. Also, the inhibition at 0.1 µM against Flt4(h) came out at 100%. Besides, the GI50 was 1.61 nM in the assay with KU812 and 3.16 nM with RS4.11. Besides, the anti-tumor effect entry in [1] is “strong anti-tumor effect”.
With `C/C=C/c1cc(Nc2cc(N3CCN(C)CC3)nc(Oc3ccc4[nH]c(C)cc4c3F)n2)n[nH]1` [Compound 53], the half-maximal inhibitory concentration (IC50) at Abl (M351T)(h) (Abl(M351T)) was 0.7 nM; at Ret (V804L)(h) (Ret(V804L mutation)), 10 nM; against Ret(V804M)(h) (Ret(V804M mutation)) it was 6 nM; on FGFR2(h) (FGFR2), 2 nM; on FGFR3(h) (FGFR3), 1 nM; on Flt1(h) (VEGFR1) it was 3 nM. In addition, half-maximal inhibition at Flt4(h) (VEGFR3) (IC50) was put at 2 nM. Besides, the 50% growth inhibitory concentration (GI50) amounted to 0.78 nM in the assay with AN3.CA; 0.24 nM in the assay with KU812; 0.06 nM with Kato III; 11 nM with RS4.11; 3.5 nM in the assay with TT.
`C/C=C/c1cc(Nc2cc(N3CCNCC3)nc(Oc3ccc4[nH]c(C)cc4c3F)n2)n[nH]1` [Compound 68] yielded a concentration for 50% growth inhibition (GI50) in the assay on AN3.CA of 0.88 nM. In the assay with TT, this molecule came in with a GI50 of 1.9 nM. Further, in assay [1], the “anti-tumor effect in combination with Abraxane” value (“anti-tumor effect in combination” for short) was “significant antitumor efficacy” and the anti-tumor effect entry was “strong anti-tumor effect”.
In the assay on KU812, `Cc1cc2c(F)c(Oc3nc(Nc4cc(C5CC5)[nH]n4)cc(N4CCNCC4)n3)cc(F)c2[nH]1` [Compound 82] came in with a concentration for 50% growth inhibition (GI50) of 0.75 nM. This molecule also had a GI50 in the assay on RS4.11 of 2.65 nM. For the same molecule, in assay [1], the “anti-tumor effect in combination” value was “significant antitumor efficacy” and the anti-tumor effect result is “strong anti-tumor effect”.
Regarding `C/C=C/c1cc(Nc2cc(N3CCN(CCO)CC3)nc(Oc3cc(F)c4[nH]c(C)cc4c3F)n2)n[nH]1` [Compound 88], the GI50 came to 0.31 nM in the assay on AN3.CA; 0.71 nM with KU812; 0.06 nM with Kato III; 3.71 nM with RS4.11; 3.4 nM with TT. The anti-tumor effect entry in [1] is recorded as “strong anti-tumor effect”; in assay [2], “Inhibits Tumor Growth”.
Turning to `C/C=C/c1cc(Nc2cc(N3CCN(C)CC3)nc(Oc3cc(F)c4[nH]c(C)cc4c3F)n2)n[nH]1` [NTW-3456], in [1], the “anti-tumor effect in combination” value was “significant anti-tumor activity” and the anti-tumor effect entry was “some anti-tumor activity”. Further, the anti-tumor effect entry in [2] was “significant anti-tumor activity”.
